Experimental data reported in patent US20150183791A1, “IMIDAZO[1,2-b]PYRIDAZINE-BASED COMPOUNDS, COMPOSITIONS COMPRISING THEM, AND METHODS OF THEIR USE” (LEXICON PHARMACEUTICALS, INC., priority 2013, published 2015).

Legend:
[1] = biological target: AAK1 (full-length human protein) (Homo sapiens, UniProt Q2M2I8); assay: P81 filter plate assay; format: biochemical
Procedure: Compounds were serially diluted into a Labcyte LDV plate (Labcyte, cat# LP-0200) using a Mutiprobe (PerkinElmer) and Biomek FX (Beckman Coulter) so that the highest compound concentration was at 96 μM. Compounds were then pinged (75 nL per well) into a Greiner 384-well reaction plate (Greiner, #781076) using an ECHO 550 Liquid Handler (Labcyte). A total of 12 μl reaction buffer (IMAP buffer containing Tween and DTT, from Molecular Devices) was then added to each well of columns 1 and 13 for the negative controls and 12 μl of 2×AAK1 (0.2 nM full-length human protein, NCBI accession no. NP_055726.2) was added to the remaining wells. Enzyme was then pre-incubated with compound for 10 minutes at room temperature. Reactions were initiated upon Minitrak (PerkinElmer) addition of 12 μl substrate mix containing 2× Mu2 (0.2 μM, full length human protein), 2× cold ATP (2 μM), and 1.3 μCi of hot ^33P-ATP. Reactions proceeded for one hour at room temperature. Meanwhile, Millipore 384-well P81 filter plates (Millipore, catalog # MZPHN0 W10) were placed on a plate washer (Zoom ZW, from Titertek) and pre-wet with 50 μl 1% phosphoric acid. Kinase reactions were then stopped upon addition of 24 μl of 2% phosphoric acid to each well and the Minitrak was then used to transfer 40 μl from each well into the pre-wet Millipore 384-well P81 filter plates. Reaction mixtures were incubated for 10 minutes at room temperature in the P81 plates, followed by washing five times with 100 μl/well of 1% phosphoric acid using the Zoom filter washer. The bottom of each filter plate was sealed followed by addition of 20 μl Microscint 40 to each well, sealing the top of the plates with Flashplate cover, and then waiting one hour until reading on the TopCount (Perkin Elmer).

[2] = biological target: T1, AAK1 (full length human) transfected with Flag/AP2MI in HEK293F cells; phospho-mu2 (Homo sapiens, UniProt Q2M2I8); assay: HEK281 cell-based assay; conditions: HEK293F cells transfected with human AAK1 and AP2M1, 3 hours with compound, phospho-mu2 Western blot normalized to total Mu2
T1 construct: HA; expressed in transfected cells; host or cells: HEK293F
T1 sequence (Q2M2I8 1-863 isoform Q2M2I8-2): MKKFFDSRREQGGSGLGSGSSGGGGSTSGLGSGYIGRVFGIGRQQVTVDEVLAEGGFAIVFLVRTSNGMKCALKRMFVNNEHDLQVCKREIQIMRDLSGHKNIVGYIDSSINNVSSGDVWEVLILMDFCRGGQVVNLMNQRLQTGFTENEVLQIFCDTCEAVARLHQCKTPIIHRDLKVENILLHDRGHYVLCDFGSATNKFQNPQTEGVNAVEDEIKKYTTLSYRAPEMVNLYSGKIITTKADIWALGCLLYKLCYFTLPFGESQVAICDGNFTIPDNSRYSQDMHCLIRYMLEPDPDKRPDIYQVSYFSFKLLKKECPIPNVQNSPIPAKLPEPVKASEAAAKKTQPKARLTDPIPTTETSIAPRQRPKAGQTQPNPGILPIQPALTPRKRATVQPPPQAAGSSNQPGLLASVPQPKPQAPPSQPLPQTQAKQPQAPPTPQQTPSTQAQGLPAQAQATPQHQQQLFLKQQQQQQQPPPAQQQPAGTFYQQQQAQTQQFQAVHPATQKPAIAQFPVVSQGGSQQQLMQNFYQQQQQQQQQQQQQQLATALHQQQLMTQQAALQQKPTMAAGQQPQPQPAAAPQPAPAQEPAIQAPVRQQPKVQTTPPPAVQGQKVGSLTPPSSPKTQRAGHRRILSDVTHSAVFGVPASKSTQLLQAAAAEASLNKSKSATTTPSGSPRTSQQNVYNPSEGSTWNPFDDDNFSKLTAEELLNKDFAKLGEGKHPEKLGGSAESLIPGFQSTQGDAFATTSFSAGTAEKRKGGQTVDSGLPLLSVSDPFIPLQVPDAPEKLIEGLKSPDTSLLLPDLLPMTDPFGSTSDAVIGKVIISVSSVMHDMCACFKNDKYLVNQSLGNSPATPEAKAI
Procedure: HEK293F cells were cultured in media containing DMEM (Gibco, cat. #11965), 10% FBS (SAFC Biosciences, cat. #12103C), 1×GPS (glutamine, penicillin and streptomycin). On day one, cells were plated on a 10 cm dish so that they are ˜80% confluent at time of transfection. Roughly 12 million cells were in a 10 cm dish at time of transfection. On day two, each dish was transfected with 48 ug DNA and 144 ul Lipofectamine 2000 (Invitrogen, cat.#11668-019). The DNA was comprised of a mixture (per 10 cm dish) containing 3 ug AAK1/HA/pIRES (full length human, NCBI accession no. NP_055726.2), 45 μg Flag/AP2MI/pcDNA (full length human), and 1.5 ml OPTI-MEM. The Lipofectamine 2000 is made up of a mixture (per 10 cm dish) containing 144 μl Lipofectamine 2000 and 1.5 ml OPTI-MEM. Each mixture was transferred to individual 15 ml tubes and incubated at room temperature for 5 minutes, and then the two mixes were combined and incubated at room temperature for 20 minutes. Growth media was then aspirated from each 10 cm plate and replaced with 10 ml of DMEM+10% FBS (no GPS). Finally, 3 ml DNA/Lipofectamine mix was added to each 10 cm dish and mix gently followed by incubate of plate overnight at 37° C. and 5% CO2.
On day three, compounds were diluted in 100% DMSO at 1000× final concentration, followed by 3-fold serial dilutions for a total of 5 concentrations tested. Four compounds were tested per 10 cm dish. One ul of each compound dilution was then pipetted into a deep-well, 96-well plate, followed by addition of 500 μl DMEM+0.5% FBS into each well for a 2× final concentration of each compound. Cells were resuspended in a 10 cm dish by simple pipetting (HEK293 cells come off the plate that easy at this point) and then transferred to a 50 ml conical tube and pelleted by centrifugation at 1000 rpm for 5 min. Cell pellets were then resuspended in 2.75 ml DMEM+0.5% FBS per 10 cm dish and 100 μl of cell suspension transferred into each well of 96-well TC plate. Finally, 100 μl of 2× compound diluted in DMEM+0.5% FBS was then added into wells containing cell suspension for a 1× final concentration. Plates were then incubated at 37° C. and 5% CO2 for 3 hours followed by transferring of cell suspensions from each well into 12-tube PCR strips. The PCR strips were spun in a tip rack at 1000 rpm for 5 minutes to pellet cells and media was then removed by pipetting without disturbing the cell pellet.
To prepare for Western Blot analysis, cell pellets were resuspend in 40 ul 1×LDS-PAGE sample buffer (Invitrogen, cat.# NP0008) +2× Halt phophatase and protease inhibitor cocktail (Thermo Scientific, cat.#1861284), followed by sonicating each with microtip sonicator set at 5 for 8-10 seconds. Five ul of 10× NuPage Sample Reducing Agent (with […]) was to each sample followed by heat denaturing at 70 C for 10 min on PCR machine. A total of 10 μl per sample was loaded into each lane of a 4-20% Tris-Glycine Criterion 26-well gel (Biorad, cat.#345-0034) for the phospho-mu2 blot and 10 μl per lane in a 4-12% Bis-Tris (+MES buffer) NuPAGE 26-well gel (Invitrogen, cat.# WG1403BX10) for the mu2 blot. For controls, 2 ng of phospho-mu2 or 20 ng mu2/Flag proteins were loaded in the last well of each gel. After SDS-PAGE, samples on each gel were transferred to PVDF membrane using an iBlot and membranes were blocked for one hour in TBST+5% milk, followed by wash 3× for 5-10 min with TBST. Criterion gels were probed with rabbit anti-phospho-mu2 (1:5000; a rabbit polyclonal antibody produced by New England Peptide and affinity purified at Lexicon) in TBST+5% BSA, whereas, NuPAGE gels were probed with mouse anti-Flag (1:500; Sigma, cat.# F1804) in TBST+5% milk, and these primary antibodies were incubated overnight at 4° C. on a rocker. […]

[3] = 0.2 nM-scale full-length human AAK1, Mu2 substrate, 33P-ATP, one hour at room temperature, class symbols

AAK1 (full-length human protein), sequence (Q2M2I8 1-863 isoform Q2M2I8-2): as above

IC50 [1, 3] [µM] | IC50 ([1]; same assay, given as numeric bound instead of class symbol) [µM] | SMILES | CBA IC50 [2]
≤ 0.01 | – | CC(C)CNC(=O)c1cncc(-c2ccc3ncc(-c4ccc(CN)cc4)n3n2)c1 [5-(3-(4-(Aminomethyl)phenyl)imidazo[1,2-b]pyridazin-6-yl)-N-isobutylnicotinamide] | ** (“**” means a value of less than or equal to 0.1 μM)
– | > 0.3 | CC(C)CNC(=O)c1cccc(-c2ccc3ncc(-c4ccncc4)n3n2)c1 [N-isobutyl-3-(3-(pyridin-4-yl)imidazo[1,2-b]pyridazin-6-yl)benzamide] | * (“*” means less than or equal to 1.0 μM)
≤ 0.01 | – | COc1cnccc1-c1cnc2ccc(-c3cccc(C(=O)NCC(C)C)c3)nn12 [N-isobutyl-3-(3-(3-methoxypyridin-4-yl)imidazo[1,2-b]pyridazin-6-yl)benzamide] | * (“*” means less than or equal to 1.0 μM)
≤ 0.01 | – | CNC(=O)c1ccc(-c2cnc3ccc(-c4cccc(C(=O)NCC(C)C)c4)nn23)cc1 [N-isobutyl-3-(3-(4-(methylcarbamoyl)phenyl)imidazo[1,2-b]pyridazin-6-yl)benzamide] | * (“*” means less than or equal to 1.0 μM)

Further lines, the compound ahead of its results:

SMILES | IC50 [1, 3] [µM] | IC50 ([1]; same assay, given as numeric bound instead of class symbol) [µM] | CBA IC50 [2]
CC(=O)c1cccc(-c2ccc3ncc(-c4ccc(CN)cc4)n3n2)c1 [1-(3-(3-(4-(Aminomethyl)phenyl)imidazo[1,2-b]pyridazin-6-yl)phenyl)ethanone] | ≤ 0.01 | – | ** (“**” means a value of less than or equal to 0.1 μM)
CC(C)CCC(=O)c1cccc(-c2ccc3ncc(-c4ccc(CN)cc4)n3n2)c1 [1-(3-(3-(4-(Aminomethyl)phenyl)imidazo[1,2-b]pyridazin-6-yl)phenyl)-4-methylpentan-1-one] | ≤ 0.01 | – | ** (“**” means a value of less than or equal to 0.1 μM)
CC(C)CNC(=O)c1cccc(-c2ccc3ncc(-c4ccc(CN)cc4)n3n2)c1 [3-(3-(4-(Aminomethyl)phenyl)imidazo[1,2-b]pyridazin-6-yl)-N-isobutylbenzamide] | ≤ 0.01 | – | ** (“**” means a value of less than or equal to 0.1 μM)
CC(=O)c1cccc(-c2ccc3ncc(-c4ccc(C(N)=O)cc4)n3n2)c1 [4-(6-(3-Acetylphenyl)imidazo[1,2-b]pyridazin-3-yl)benzamide] | – | – | * (“*” means less than or equal to 1.0 μM)
CC(=O)c1cccc(-c2ccc3ncc(Br)n3n2)c1 [1-(3-(3-Bromoimidazo[1,2-b]pyridazin-6-yl)phenyl)ethanone] | – | – | * (“*” means less than or equal to 1.0 μM)
